In PubChem BioAssay (NCI):
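Each compound was tested at five concentrations against cells in 96-well plates for 48 hours. GI50 = concentration required for 50% inhibition of growth. TGI denotes the concentration required for complete inhibition of growth.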

Key:
Assay in all cases: growth of human tumour cells (NCI), 48 h
[1] = tested on: EKVX NSCLC
[2] = tested on: HT29 colon
[3] = tested on: MDA-MB-231 breast
[4] = tested on: SF-268 CNS
[5] = tested on: HCT-116 colon
[6] = tested on: 786-0 renal
[7] = tested on: U251 CNS
[8] = tested on: RXF 393 renal
[9] = tested on: TK-10 renal
[10] = tested on: CAKI-1 renal
[11] = tested on: SK-MEL-5 melanoma
[12] = tested on: ACHN renal
[13] = tested on: NCI/ADR-RES ovarian
[14] = tested on: KM12 colon
[15] = tested on: T-47D breast
[16] = tested on: SNB-19 CNS
[17] = tested on: HOP-92 NSCLC
[18] = tested on: NCI-H226 lung
[19] = tested on: HOP-62 NSCLC
[20] = tested on: LOX IMVI melanoma
[21] = tested on: NCI-H23 lung
[22] = tested on: OVCAR-8 ovarian
[23] = tested on: K-562 leukemia
[24] = tested on: HS 578T breast
[25] = tested on: COLO 205 colon
[26] = tested on: SNB-75 CNS
[27] = tested on: SK-MEL-2 melanoma
[28] = tested on: MDA-N
[29] = tested on: NCI-H522 lung
[30] = tested on: MCF7 breast
[31] = tested on: PC-3 prostate
[32] = tested on: M14 melanoma
[33] = tested on: OVCAR-3 ovarian
[34] = tested on: A549 NSCLC
[35] = tested on: SK-OV-3 ovarian
[36] = tested on: HL-60(TB) leukemia
[37] = tested on: UACC-257 melanoma
[38] = tested on: SF-295 CNS
[39] = tested on: MALME-3M melanoma
[40] = tested on: MDA-MB-435
[41] = tested on: MOLT-4 leukemia
[42] = tested on: BT-549 breast
[43] = tested on: OVCAR-5 ovarian
[44] = tested on: UO-31 renal
[45] = tested on: SW-620 colon
[46] = tested on: DU-145 prostate
[47] = tested on: SF-539 CNS
[48] = tested on: SN12C renal
[49] = tested on: RPMI-8226 leukemia
[50] = tested on: OVCAR-4 ovarian
[51] = tested on: SR leukemia
[52] = tested on: SK-MEL-28 melanoma
[53] = tested on: UACC-62 melanoma
[54] = tested on: HCT-15 colon

O=[N+]([O-])c1ccc2c3c1[C@H]1O[C@H]1c1cccc(c1-3)[C@@H]1O[C@H]21
TGI [1]: 4.08 µM
TGI [2]: 6.57 µM
TGI [3]: 3.87 µM
TGI [4]: 4.38 µM
TGI [5]: 3.59 µM
TGI [6]: 3.56 µM
TGI [7]: 3.98 µM
TGI [8]: 3.38 µM
TGI [9]: > 30 µM
TGI [10]: 3.73 µM
TGI [11]: 7.82 µM
TGI [12]: 5.17 µM
TGI [13]: 5.65 µM
TGI [14]: 5.86 µM
TGI [15]: 6.18 µM
TGI [16]: 13.6 µM
TGI [17]: 5.03 µM
TGI [18]: > 100 µM
TGI [19]: 10.8 µM
TGI [20]: 1.28 µM
TGI [21]: 3.88 µM
TGI [22]: 3.24 µM
TGI [23]: > 100 µM
TGI [24]: 7.06 µM
GI50 [25]: 1.72 µM
TGI [25]: 3.69 µM
TGI [26]: 4.1 µM
TGI [27]: > 100 µM
TGI [28]: 4.91 µM
TGI [29]: 3.42 µM
GI50 [30]: 2.78 µM
TGI [30]: > 100 µM
TGI [31]: > 20 µM
TGI [32]: 3.75 µM
TGI [33]: 6.2 µM
TGI [34]: 15.5 µM
TGI [35]: 11.6 µM
TGI [36]: 8.85 µM
TGI [37]: 4.87 µM
TGI [38]: 12.3 µM
TGI [39]: 4.64 µM
TGI [40]: 4.14 µM
TGI [41]: > 100 µM
TGI [42]: 3.89 µM
TGI [43]: 6.77 µM
TGI [44]: 3.62 µM
TGI [45]: 2.75 µM
TGI [46]: 6.25 µM
TGI [47]: 4.09 µM
TGI [48]: 4.69 µM
TGI [49]: > 100 µM
TGI [50]: 4.46 µM
TGI [51]: > 100 µM
TGI [52]: 6.73 µM
TGI [53]: 3.69 µM
TGI [54]: 4.47 µM
